Our source for the Emax values is patent publication US8716284B2, “Adamantyl diamide derivatives and uses of same” (H. Lundbeck A/S, priority 2008, dated 2014).

SMILES strings stand for the structures.

In this assay the target is T1, rat metabotropic glutamate receptor 5 (mGluR5) (Rattus norvegicus, UniProt P31424).
T1 construct: expressed in transfected cells; host or cells: HEK 293
The assay can be described thus: Calcium mobilization assay (FLIPR) for negative or positive allosteric activity, HEK 293 cells. Format: cell-based. To be noted: HEK293, negative allosteric modulation, inhibition of EC80 glutamate response; read-out: FLIPR maximum inhibition. As to the method:
The cDNA for rat metabotropic glutamate receptor 5 (mGluR5) was a generous gift from S. Nakanishi (Kyoto University, Kyoto, Japan). The mGluR5 was stably expressed in a HEK 293 cell line and grown in Dulbecco's Modified Eagle Medium (DMEM) (Invitrogen, Carlsbad, Calif.) with supplements (10% bovine calf serum, 4 mM glutamine, 100 units/mL penicillin, 100 μg/mL streptomycin and 0.75 mM G1418) at 37° C., 5% CO2. Twenty-four hours prior to assay, cells were seeded into 384-well black wall microtiter plates coated with poly-D-lysine. Just prior to assay, media was aspirated and cells dye-loaded (25 μL/well) with 3 μM Fluo-4/0.01% pluronic acid in assay buffer (Hank's Balanced Saline Solution (HBSS)): 150 mM NaCl, 5 mM KCl, 1 mM CaCl2, 1 mM MgCl2, plus 20 mM N-2-Hydroxyethylpiperazine-N′-2-ethanesulfonic acid (HEPES), pH 7.4, 0.1% bovine serum albumin (BSA) and 2.5 mM probenicid) for 1 hour in 5% CO2 at 37° C. After excess dye was discarded, cells were washed in assay buffer and layered with a final volume equal to 30 μL/well. Basal fluorescence is monitored in a fluorometric imaging plate reader (FLIPR) (Molecular Devices, Sunnyvale, Calif.) with an excitation wavelength of 488 nm and an emission range of 500 to 560 nm. Laser excitation energy was adjusted so that basal fluorescence readings were approximately 10,000 relative fluorescent units. Cells were stimulated with an EC20 or an EC80 concentration of glutamate in the presence of a compound to be tested, both diluted in assay buffer, and relative fluorescent units were measured at defined intervals (exposure=0.6 sec) over a 3 min period at room temperature. Basal readings derived from negative controls were subtracted from all samples. Maximum change in fluorescence was calculated for each well. Concentration-response curves derived from the maximum change in fluorescence were analyzed by nonlinear regression (Hill equation). A negative modulator can be identified from these concentration-response curves if a compound produces a concentration dependent inhibition of the EC80 glutamate response. […] Examples 11-163 also were tested in the above assay.
A positive modulator can be identified from these concentration-response curves if a compound produces a concentration dependent increase in the EC20 glutamate response.

T1 sequence (P31424 21-1171 isoform P31424-2 limits assumed): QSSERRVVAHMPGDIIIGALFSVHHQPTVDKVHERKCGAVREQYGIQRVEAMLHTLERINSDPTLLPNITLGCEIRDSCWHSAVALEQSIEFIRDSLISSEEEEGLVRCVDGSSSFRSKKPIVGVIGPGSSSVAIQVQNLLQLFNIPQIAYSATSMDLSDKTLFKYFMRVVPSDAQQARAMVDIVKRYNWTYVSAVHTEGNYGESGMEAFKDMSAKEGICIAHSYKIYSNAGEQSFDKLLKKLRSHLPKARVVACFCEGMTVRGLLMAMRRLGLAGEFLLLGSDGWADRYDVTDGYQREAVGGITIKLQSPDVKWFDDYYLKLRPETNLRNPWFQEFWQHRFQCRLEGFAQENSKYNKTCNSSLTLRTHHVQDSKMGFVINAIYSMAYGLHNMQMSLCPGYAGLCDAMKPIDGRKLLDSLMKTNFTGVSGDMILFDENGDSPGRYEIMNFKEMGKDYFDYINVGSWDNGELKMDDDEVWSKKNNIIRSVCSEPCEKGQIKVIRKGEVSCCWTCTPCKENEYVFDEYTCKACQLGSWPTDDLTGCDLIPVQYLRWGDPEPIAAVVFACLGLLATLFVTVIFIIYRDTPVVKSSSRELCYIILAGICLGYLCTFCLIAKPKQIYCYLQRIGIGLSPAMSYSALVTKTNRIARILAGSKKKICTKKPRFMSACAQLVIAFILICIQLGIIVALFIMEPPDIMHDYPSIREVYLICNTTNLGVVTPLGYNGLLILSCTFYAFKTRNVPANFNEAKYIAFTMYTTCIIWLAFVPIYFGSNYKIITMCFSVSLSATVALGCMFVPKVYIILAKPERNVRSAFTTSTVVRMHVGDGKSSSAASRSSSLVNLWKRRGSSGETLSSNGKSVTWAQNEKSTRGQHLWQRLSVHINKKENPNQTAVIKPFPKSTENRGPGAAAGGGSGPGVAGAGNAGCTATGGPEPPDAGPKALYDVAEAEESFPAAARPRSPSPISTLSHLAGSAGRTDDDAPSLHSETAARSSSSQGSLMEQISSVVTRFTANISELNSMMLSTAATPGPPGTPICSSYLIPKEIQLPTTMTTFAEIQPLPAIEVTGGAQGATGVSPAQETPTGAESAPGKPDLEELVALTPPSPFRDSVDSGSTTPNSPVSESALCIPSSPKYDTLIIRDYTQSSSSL

`Cc1cccc(C(=O)NC23CC4CC(C2)CC(NC(=O)c2coc(C)n2)(C4)C3)n1` [Example 29, 6-Methyl-pyridine-2-carboxylic acid {3-[(2-methyl-oxazole-4-carbonyl)-amino]-adamantan-1-yl}-amide]: the Emax lay within 63 to 99%.
The value for `N#Cc1cccc(C(=O)NC23CC4CC(C2)CC(NC(=O)c2cccc(C#N)c2)(C4)C3)c1` [Example 5, N,N′-(1,3-adamantylene)bis(3-cyano-benzamide)] was 90 to 99%.
`Cn1nc(C(=O)NC23CC4CC(CC(NC(=O)c5ccccn5)(C4)C2)C3)cc1-c1ccco1` [Example 9, Pyridine-2-carboxylic acid {3-[(5-furan-2-yl-1-methyl-1H-pyrazole-3-carbonyl)-amino]-adamantan-1-yl}-amide]: the Emax lay within 90 to 99%.
`Cc1cccc(C(=O)NC23CC4CC(C2)CC(NC(=O)c2scc5c2OCCO5)(C4)C3)n1` [Example 38, 6-Methyl-pyridine-2-carboxylic acid {3-[(2,3-dihydro-thieno[3,4-b][1,4]dioxine-5-carbonyl)-amino]-adamantan-1-yl}-amide]: the Emax fell in the range of 63 to 99%.
In the case of `CN1CCN(c2cccc(C(=O)NC34CC5CC(CC(NC(=O)c6cccc(F)c6)(C5)C3)C4)n2)CC1` [Example 216, 6-(4-Methyl-piperazin-1-yl)-pyridine-2-carboxylic acid [3-(3-fluoro-benzoylamino)-adamantan-1-yl]-amide], the Emax is 63 to 99%.
Consider `COc1ccc(C(=O)NC23CC4CC(C2)CC(NC(=O)c2ccccn2)(C4)C3)cc1` [Example 81, Pyridine-2-carboxylic acid [3-(4-methoxy-benzoylamino)-adamantan-1-yl]-amide], for which the Emax was 63 to 99%.
The value for `O=C(NC12CC3CC(C1)CC(NC(=O)c1cccc(-n4ccnc4)n1)(C3)C2)c1cccc(F)c1` [Example 255, 6-Imidazol-1-yl-pyridine-2-carboxylic acid [3-(3-fluoro-benzoylamino)-adamantan-1-yl]-amide] was 63 to 99%; that for `Cc1cccc(C(=O)NC23CC4CC(C2)CC(NC(=O)c2cccc(NCCC(N)=O)n2)(C4)C3)n1` [Example 240, 6-(2-Carbamoyl-ethylamino)-pyridine-2-carboxylic acid (3-[(6-methyl-pyridine-2-carbonyl)-amino]-adamantan-1-yl}-amide] was 63 to 99%; that for `CN(CCO)c1cccc(C(=O)NC23CC4CC(CC(NC(=O)c5cccc(F)c5)(C4)C2)C3)n1` [Example 213, 6-[(2-Hydroxy-ethyl)-methyl-amino]-pyridine-2-carboxylic acid [3-(3-fluoro-benzoylamino)-adamantan-1-yl]-amide] was 63 to 99%.
As to `Cc1cncc(C(=O)NC23CC4CC(C2)CC(NC(=O)c2cc(C(F)(F)F)ccc2F)(C4)C3)n1` [Example 169, 6-Methyl-pyrazine-2-carboxylic acid [3-(2-fluoro-5-trifluoromethyl-benzoylamino)-adamantan-1-yl]-amide], the Emax lay in the range of 63 to 99%.
Turning to `Cc1ccn2cc(C(=O)NC34CC5CC(CC(NC(=O)c6ccccn6)(C5)C3)C4)nc2c1` [Example 91, 7-Methyl-imidazo[1,2-a]pyridine-2-carboxylic acid {3-[(pyridine-2-carbonyl)-amino]-adamantan-1-yl}-amide], the Emax lay in the range of 63 to 99%.
Regarding `Cc1cccc(C(=O)NC23CC4CC(C2)CC(NC(=O)c2cccc(N)n2)(C4)C3)n1` [Example 117, 6-Methyl-pyridine-2-carboxylic acid {3-[(6-aminopyridine-2-carbonyl)-amino]-adamantan-1-yl}-amide], the Emax fell in the range of 70 to 99%.
The value for `O=C(NC12CC3CC(C1)CC(NC(=O)C1CC1(F)F)(C3)C2)c1ccccn1` (centres unmarked) [Example 83, Pyridine-2-carboxylic acid {3-[(2,2-difluoro-cyclopropanecarbonyl)-amino]-adamantan-1-yl}-amide] was 63 to 99%.
As for `O=C(NC12CC3CC(C1)CC(NC(=O)c1cccc(N4CCC(O)C4)n1)(C3)C2)c1cccc(F)c1` (centres unmarked) [Example 219, 6-(3-Hydroxy-pyrrolidin-1-yl)-pyridine-2-carboxylic acid [3-(3-fluoro-benzoylamino)-adamantan-1-yl]-amide], the Emax was 63 to 99%.
The value for `CCOc1cccc(C(=O)NC23CC4CC(C2)CC(NC(=O)c2cncc(C)n2)(C4)C3)c1` [Example 147, 6-Methyl-pyrazine-2-carboxylic acid [3-(3-ethoxy-benzoylamino)-adamantan-1-yl]-amide] was 70 to 99%.
The value for `Cc1cccc(C(=O)NC23CC4CC(C2)CC(NC(=O)c2cccc(N(C)CCN(C)C)n2)(C4)C3)n1` [Example 204, 6-[(2-Dimethylamino-ethyl)-methyl-amino]-pyridine-2-carboxylic acid{3-[(6-methyl-pyridine-2-carbonyl)-amino]-adamantan-1-yl}-amide] was 63 to 99%.
The value for `N#Cc1cccc(C(=O)NC23CC4CC(C2)CC(NC(=O)c2ccccn2)(C4)C3)c1` [Example 7, Pyridine-2-carboxylic acid[3-(3-cyano-benzoylamino)-adamantan-1-yl]-acid] was 90 to 99%; that for `Cc1cccc(C(=O)NC23CC4CC(C2)CC(NC(=O)c2cn5cc(Cl)ccc5n2)(C4)C3)n1` [Example 50, 6-Chloro-imidazo[1,2-a]pyridine-2-carboxylic acid {3-[(6-methyl-pyridine-2-carbonyl)-amino]-adamantan-1-yl}-amide] was 63 to 99%.
Consider `CN1CCN(c2cccc(C(=O)NC34CC5CC(CC(NC(=O)c6ccccn6)(C5)C3)C4)n2)CC1` [Example 198, 6-(4-Methyl-piperazin-1-yl)-pyridine-2-carboxylic acid {3-[(pyridine-2-carbonyl)-amino]-adamantan-1-yl}-amide], for which the Emax is 63 to 99%.
The value for `Cn1ccc(C(=O)NC23CC4CC(C2)CC(NC(=O)c2ccn(C)n2)(C4)C3)n1` [Example 17, N,N′-(1,3-Adamantylene)bis(1-methyl-1H-pyrazole-3-carboxamide)] was 63 to 99%; that for `Cc1cncc(C(=O)NC23CC4CC(C2)CC(NC(=O)c2cncc(C)n2)(C4)C3)c1` [Example 165, 6-Methyl-pyrazine-2-carboxylic acid {3-[(5-methyl-pyridine-3-carbonyl)-amino]-adamantan-1-yl}-amide] was 63 to 99%; that for `Cc1cccc(C(=O)NC23CC4CC(C2)CC(NC(=O)c2cccc(C(F)(F)F)n2)(C4)C3)n1` [Example 23, 6-Trifluoromethyl-pyridine-2-carboxylic acid {3-[(6-methyl-pyridine-2-carbonyl)-amino]-adamantan-1-yl}-amide] was 63 to 99%.
The value for `O=C(NC12CC3CC(C1)CC(NC(=O)c1cccs1)(C3)C2)c1ccccn1` [Example 75, Pyridine-2-carboxylic acid {3-[(thiophene-2-carbonyl)-amino]-adamantan-1-yl}-amide] was 63 to 99%; that for `Cc1cccc(C(=O)NC23CC4CC(C2)CC(NC(=O)c2cccc(N5CCC[C@@H]5CO)n2)(C4)C3)n1` [Example 238, 6-((R)-2-Hydroxymethyl-pyrrolidin-1-yl)-pyridine-2-carboxylic acid {3-[(6-methyl-pyridine-2-carbonyl)-amino]-adamantan-1-yl}-amide] was 63 to 99%.
For the compound `Cc1nc(C(=O)NC23CC4CC(CC(NC(=O)c5ccccn5)(C4)C2)C3)cs1` [Example 110, Pyridine-2-carboxylic acid {3-[(2-methyl-thiazole-4-carbonyl)-amino]-adamantan-1-yl)-amide], the Emax fell in the range of 70 to 99%.
The value for `CC(=O)NCCNc1cccc(C(=O)NC23CC4CC(CC(NC(=O)c5cccc(F)c5)(C4)C2)C3)n1` [Example 244, 6-(2-Acetylamino-ethylamino)-pyridine-2-carboxylic acid [3-(3-fluoro-benzoylamino)-adamantan-1-yl]-amide] was 63 to 99%; that for `Cc1cccc(C(=O)NC23CC4CC(CC(NC(=O)c5cc(F)ccn5)(C4)C2)C3)n1` [Example 125, 6-Methyl-pyridine-2-carboxylic acid {3-[(4-fluoropyridine-2-carbonyl)-amino]-adamantan-1-yl}-amide] was 70 to 99%.
Consider `Cc1cccc(C(=O)NC23CC4CC(C2)CC(NC(=O)c2ccnc(C(F)(F)F)n2)(C4)C3)n1` [Example 140, 2-Trifluoromethyl-pyrimidine-4-carboxylic acid {3-[(6-methyl-pyridine-2-carbonyl)-amino]-adamantan-1-yl}-amide], for which the Emax is 70 to 99%.
In the case of `COc1cc(C(=O)NC23CC4CC(C2)CC(NC(=O)c2cncc(C)n2)(C4)C3)ccn1` [Example 154, 6-Methyl-pyrazine-2-carboxylic acid {3-[(2-methoxy-pyridine-4-carbonyl)-amino]-adamantan-1-yl}-amide], the Emax was in the range of 70 to 99%.
